In patent US11104633B2, “Cancer treatment using compounds that selectively target polyploid cancer cells for disruption” (Chengdu Anticancer Bioscience, Ltd., priority 2017, dated 2021):

Columns and labels:
MM-BRAF cells = test: Cell death / polyploidy in parental lung cancer cells; format: cell-based, mouse
RPE-MYC cells [1] = test: VX-680-induced cell death in RPE-MYC cells and derivatives; format: cell-based
Source text: (§1) The p53 function in RPE-Myc cells can be interfered with by either a small molecule inhibitor of p53, PFT-a, (FIG. 1A), or a dominant negative p53 mutant (FIG. 1B). […] In contrast, either of these reagents conferred more than 70% protection against the cytotoxicity elicited by hydroxyurea (FIG. 1A-B), confirming that the p53 function was compromised. The conclusion was that p53 was not required for the apoptosis elicited by VX-680 in cells overexpressing MYC.
Survival signals are often mediated by the Ras-PI3K-Akt pathway. Overexpression of an active Hu-Ras^V12 elicited profound senescence in RPE-MYC cells, prevented generation of stable cell lines expressing Hu-Ras^V12, but were able to generate RPE-MYC cells expressing an active allele of MyrAkt. […] Thus, active signaling from Akt enhanced, rather than blocked, the apoptosis elicited by VX-680. The BCL family antiapoptotic factor Bcl2 is a critical regulator of mitochondrion-dependent apoptotic pathway by inhibiting cytochrome C release from mitochondria, whereas XIAP, the most characterized member of the IAP family, has been known to sequester and inactivate active caspases, proteases responsible for apoptosis. The overexpression of Bcl2 or Bcl-xL provided more than 40% protection against the cytotoxicity of VX-680 six days after administration of VX-680 (see, FIGS. 1C and 2) and that overexpression of XIAP has no effect on the MYC-dependent cytotoxicity (FIG. 1C).
Various RPEMYC derivatives used in this study were generated by stably transfecting human RPEMYC cells with a construct that expresses the gene of interest and selecting with 1 μg/ml of puromycin. Breast cancer cell line MD231MYC/Bcl2 was generated by engineering human MDA-MB-231 to stably express MYC and Bcl2. Lung cancer cell line MM-BRAF was created from mouse lung cancer model initiated by BRAF^V600E. All cell lines were cultured in DMEM supplemented with 10% fetal bovine serum and antibiotics at 5% CO2 and 95% air in a humidified incubator.
(§2) Cell death assays in response to drug treatment were performed 24 h after cells were seeded in 24-well plates. Each experiment was done in triplicate and each experiment was repeated at least twice unless indicated otherwise. Dead cells were identified by the trypan blue exclusion assay. All values are expressed as mean±1 SD of the mean.

RPE-MYC cells [2] = test: Hydroxyurea cytotoxicity in RPE-Myc cells (p53 function control); format: cell-based, human; settings: p53 inhibition; FIG. 1A
Source text: as §1, §2

COc1cc(Nc2ncc3c(n2)-c2ccc(Cl)cc2C(c2c(F)cccc2OC)=NC3)ccc1C(=O)O [MLN8237]
effect on lung cancer cells (MM-BRAF cells; FIG. 6A legend): cytostatic effect | induction of polyploidy (MM-BRAF cells; FIG. 6B legend): develop polyploidy

Cc1ccc(C(=O)Cn2c3c(sc2=N)CCCC3)cc1 [PFT-a]
protection from VX-680-induced cell death (RPE-MYC cells [1]; p53 inhibition, FIG. 1A): Neither of these reagents protected | protection against the cytotoxicity elicited by hydroxyurea (RPE-MYC cells [2]): more than 70%

Cc1cc(Nc2cc(N3CCN(C)CC3)nc(Sc3ccc(NC(=O)C4CC4)cc3)n2)[nH]n1 [VX-680]
effect of overexpression of XIAP on the MYC-dependent cytotoxicity (RPE-MYC cells [1]; FIG. 1C): no effect | sensitivity to cytotoxicity, cells expressing Myc and active Akt versus Myc alone (RPE-MYC cells [1]; RPE cells expressing both Myc and active Akt, FIG. 1C): moderately more sensitive | protection against the cytotoxicity by overexpression of Bcl2 or Bcl-xL (RPE-MYC cells [1]; six days after administration, FIGS. 1C and 2): more than 40% | cell death on exposure (MM-BRAF cells; in vitro, FIG. 6A): failed to undergo cell death | induction of multinucleation and polyploidy (MM-BRAF cells; treatment for 4 days, FIG. 6B): all cells became multinucleated and polyploid
